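Where inhibition never reached the appropriate level, the endpoint shown equals the highest concentration tested. Otherwise, values were interpolated linearly from a five-concentration, 48-hour dose response in 96-well plates. GI50: concentration for 50% inhibition of growth.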 Active and inactive are the calls of the source. No stated cut-off is given here; in the data, active = GI50 up to about 1.1 µM and inactive = higher.
Key:
Assay in all cases: NCI tumour cell line growth inhibition, 48 h
786-0 = test system: 786-0
A498 = test system: A498
A549 = test system: A549
ACHN = test system: ACHN
CAKI-1 = test system: CAKI-1
CCRF-CEM = test system: CCRF-CEM
COLO 205 = test system: COLO 205
DU-145 = test system: DU-145
EKVX = test system: EKVX
HCC 2998 = test system: HCC 2998
HCT-116 = test system: HCT-116
HL-60 = test system: HL-60
HOP-62 = test system: HOP-62
HOP-92 = test system: HOP-92
HT-29 = test system: HT-29
Hs-578T = test system: Hs-578T
IGROV-1 = test system: IGROV-1
K562 = test system: K562
KM12 = test system: KM12
LOX IMVI = test system: LOX IMVI
M14 = test system: M14
MCF7 = test system: MCF7
MDA-MB-231 = test system: MDA-MB-231
MDA-MB-435 = test system: MDA-MB-435
MDA-N = test system: MDA-N
MOLT-4 = test system: MOLT-4
Malme-3M = test system: Malme-3M
NCI-H226 = test system: NCI-H226
NCI-H23 = test system: NCI-H23
NCI-H460 = test system: NCI-H460
NCI-H522 = test system: NCI-H522
NCI/ADR-RES = test system: NCI/ADR-RES
OVCAR-3 = test system: OVCAR-3
OVCAR-4 = test system: OVCAR-4
OVCAR-5 = test system: OVCAR-5
OVCAR-8 = test system: OVCAR-8
PC-3 = test system: PC-3
RPMI-8226 = test system: RPMI-8226
RXF 393 = test system: RXF 393
SF-268 = test system: SF-268
SF-295 = test system: SF-295
SF-539 = test system: SF-539
SK-MEL-28 = test system: SK-MEL-28
SK-MEL-5 = test system: SK-MEL-5
SK-OV-3 = test system: SK-OV-3
SN12C = test system: SN12C
SNB-19 = test system: SNB-19
SNB-75 = test system: SNB-75
SR = test system: SR
SW-620 = test system: SW-620
T47D = test system: T47D
TK-10 = test system: TK-10
UACC-257 = test system: UACC-257
UACC-62 = test system: UACC-62
UO-31 = test system: UO-31
HCT-15 = test system: HCT-15
SK-MEL-2 = test system: SK-MEL-2
U-251 = test system: U-251
BT-549 = test system: BT-549

C/C(=C\CNc1nc(Cl)nc2[nH]cnc12)CO
GI50 (786-0): > 100 µM (inactive)
GI50 (A498): > 100 µM (inactive)
GI50 (A549): > 100 µM (inactive)
GI50 (ACHN): > 100 µM (inactive)
GI50 (CAKI-1): > 100 µM (inactive)
GI50 (CCRF-CEM): > 100 µM (inactive)
GI50 (COLO 205): > 100 µM (inactive)
GI50 (DU-145): > 100 µM (inactive)
GI50 (EKVX): > 100 µM (inactive)
GI50 (HCC 2998): > 100 µM (inactive)
GI50 (HCT-116): > 100 µM (inactive)
GI50 (HL-60): > 100 µM (inactive)
GI50 (HOP-62): > 100 µM (inactive)
GI50 (HOP-92): > 100 µM (inactive)
GI50 (HT-29): > 100 µM (inactive)
GI50 (Hs-578T): > 100 µM (inactive)
GI50 (IGROV-1): > 100 µM (inactive)
GI50 (K562): > 100 µM (inactive)
GI50 (KM12): > 100 µM (inactive)
GI50 (LOX IMVI): > 100 µM (inactive)
GI50 (M14): > 100 µM (inactive)
GI50 (MCF7): > 100 µM (inactive)
GI50 (MDA-MB-231): > 100 µM (inactive)
GI50 (MDA-MB-435): > 100 µM (inactive)
GI50 (MDA-N): > 100 µM (inactive)
GI50 (MOLT-4): > 100 µM (inactive)
GI50 (Malme-3M): > 100 µM (inactive)
GI50 (NCI-H226): > 100 µM (inactive)
GI50 (NCI-H23): > 100 µM (inactive)
GI50 (NCI-H460): > 100 µM (inactive)
GI50 (NCI-H522): > 100 µM (inactive)
GI50 (NCI/ADR-RES): > 100 µM (inactive)
GI50 (OVCAR-3): > 100 µM (inactive)
GI50 (OVCAR-4): > 100 µM (inactive)
GI50 (OVCAR-5): > 100 µM (inactive)
GI50 (OVCAR-8): > 100 µM (inactive)
GI50 (PC-3): > 100 µM (inactive)
GI50 (RPMI-8226): > 100 µM (inactive)
GI50 (RXF 393): > 100 µM (inactive)
GI50 (SF-268): > 100 µM (inactive)
GI50 (SF-295): > 100 µM (inactive)
GI50 (SF-539): > 100 µM (inactive)
GI50 (SK-MEL-28): > 100 µM (inactive)
GI50 (SK-MEL-5): > 100 µM (inactive)
GI50 (SK-OV-3): > 100 µM (inactive)
GI50 (SN12C): > 100 µM (inactive)
GI50 (SNB-19): > 100 µM (inactive)
GI50 (SNB-75): 96.4 µM (inactive)
GI50 (SR): > 100 µM (inactive)
GI50 (SW-620): > 100 µM (inactive)
GI50 (T47D): > 100 µM (inactive)
GI50 (TK-10): > 100 µM (inactive)
GI50 (UACC-257): > 100 µM (inactive)
GI50 (UACC-62): > 100 µM (inactive)
GI50 (UO-31): > 100 µM (inactive)

CC(C)=CCC/C(C)=C/C=C/C(C)=C/C=C/C(C)=C/C=C/C=C(C)/C=C/C=C(C)/C=C/[C@H]1C(C(C)(C)O)CC[C@]1(C)O (some centres undefined)
GI50 (786-0): 21.4 µM (inactive)
GI50 (A498): 27.1 µM (inactive)
GI50 (ACHN): 22 µM (inactive)
GI50 (CAKI-1): 33.5 µM (inactive)
GI50 (CCRF-CEM): 15.1 µM (inactive)
GI50 (DU-145): 16.9 µM (inactive)
GI50 (EKVX): 40.6 µM (inactive)
GI50 (HCC 2998): 15.5 µM (inactive)
GI50 (HCT-116): 15.7 µM (inactive)
GI50 (HCT-15): 19.4 µM
GI50 (HL-60): 19.3 µM (inactive)
GI50 (HOP-62): 20 µM (inactive)
GI50 (HOP-92): 12.7 µM (inactive)
GI50 (HT-29): 27.5 µM (inactive)
GI50 (Hs-578T): 22.1 µM (inactive)
GI50 (IGROV-1): 20.2 µM (inactive)
GI50 (K562): 21.4 µM (inactive)
GI50 (KM12): 27.4 µM (inactive)
GI50 (LOX IMVI): 23.3 µM (inactive)
GI50 (M14): 28.8 µM (inactive)
GI50 (MCF7): 16.4 µM (inactive)
GI50 (MDA-MB-231): 25.4 µM (inactive)
GI50 (MDA-MB-435): 23 µM (inactive)
GI50 (MDA-N): 25.1 µM (inactive)
GI50 (MOLT-4): 20.7 µM (inactive)
GI50 (NCI-H226): 71.1 µM (inactive)
GI50 (NCI-H23): 20.2 µM (inactive)
GI50 (NCI-H460): 29.8 µM (inactive)
GI50 (NCI-H522): 17.3 µM (inactive)
GI50 (NCI/ADR-RES): 32.4 µM (inactive)
GI50 (OVCAR-3): 18.8 µM (inactive)
GI50 (OVCAR-4): 32.1 µM (inactive)
GI50 (OVCAR-5): 40 µM (inactive)
GI50 (OVCAR-8): 20.2 µM (inactive)
GI50 (PC-3): 30.3 µM (inactive)
GI50 (RPMI-8226): 17.7 µM (inactive)
GI50 (RXF 393): 17.3 µM (inactive)
GI50 (SF-268): 19.5 µM (inactive)
GI50 (SF-295): 32.7 µM (inactive)
GI50 (SF-539): 29.2 µM (inactive)
GI50 (SK-MEL-28): 20.5 µM (inactive)
GI50 (SK-MEL-2): 37 µM (inactive)
GI50 (SK-MEL-5): 15.5 µM (inactive)
GI50 (SK-OV-3): 56.2 µM (inactive)
GI50 (SR): 23 µM (inactive)
GI50 (SW-620): 25.8 µM (inactive)
GI50 (T47D): 22.9 µM (inactive)
GI50 (TK-10): 37.3 µM (inactive)
GI50 (U-251): 20.7 µM (inactive)
GI50 (UACC-257): 21.8 µM (inactive)
GI50 (UO-31): 20.2 µM (inactive)

CCOC(=O)CN1C(=O)C(=O)N(c2ccc(OC)c3ccccc23)C1=O
GI50 (786-0): > 100 µM (inactive)
GI50 (A549): > 100 µM (inactive)
GI50 (ACHN): > 100 µM (inactive)
GI50 (BT-549): > 100 µM (inactive)
GI50 (CAKI-1): > 100 µM (inactive)
GI50 (CCRF-CEM): > 100 µM (inactive)
GI50 (COLO 205): > 100 µM (inactive)
GI50 (DU-145): > 100 µM (inactive)
GI50 (EKVX): > 100 µM (inactive)
GI50 (HCC 2998): > 100 µM (inactive)
GI50 (HCT-116): > 100 µM (inactive)
GI50 (HCT-15): > 100 µM
GI50 (HL-60): > 100 µM (inactive)
GI50 (HOP-62): 68.5 µM (inactive)
GI50 (HT-29): > 100 µM (inactive)
GI50 (K562): > 100 µM (inactive)
GI50 (KM12): > 100 µM (inactive)
GI50 (LOX IMVI): > 100 µM (inactive)
GI50 (M14): > 100 µM (inactive)
GI50 (MCF7): > 100 µM (inactive)
GI50 (MDA-MB-435): > 100 µM (inactive)
GI50 (MDA-N): > 100 µM (inactive)
GI50 (MOLT-4): > 100 µM (inactive)
GI50 (Malme-3M): > 100 µM (inactive)
GI50 (NCI-H226): 45.1 µM (inactive)
GI50 (NCI-H23): > 100 µM (inactive)
GI50 (NCI-H522): > 100 µM (inactive)
GI50 (NCI/ADR-RES): > 100 µM (inactive)
GI50 (OVCAR-3): > 100 µM (inactive)
GI50 (OVCAR-4): > 100 µM (inactive)
GI50 (OVCAR-5): > 100 µM (inactive)
GI50 (OVCAR-8): > 100 µM (inactive)
GI50 (PC-3): > 100 µM (inactive)
GI50 (RPMI-8226): > 100 µM (inactive)
GI50 (RXF 393): > 100 µM (inactive)
GI50 (SF-268): > 100 µM (inactive)
GI50 (SF-295): > 100 µM (inactive)
GI50 (SF-539): > 100 µM (inactive)
GI50 (SK-MEL-28): > 100 µM (inactive)
GI50 (SK-MEL-2): > 100 µM (inactive)
GI50 (SK-MEL-5): > 100 µM (inactive)
GI50 (SK-OV-3): > 100 µM (inactive)
GI50 (SN12C): > 100 µM (inactive)
GI50 (SNB-19): > 100 µM (inactive)
GI50 (SNB-75): > 100 µM (inactive)
GI50 (SR): > 100 µM (inactive)
GI50 (SW-620): > 100 µM (inactive)
GI50 (T47D): > 100 µM (inactive)
GI50 (TK-10): > 100 µM (inactive)
GI50 (U-251): > 100 µM (inactive)
GI50 (UACC-257): > 100 µM (inactive)
GI50 (UACC-62): > 100 µM (inactive)
GI50 (UO-31): 34.6 µM (inactive)
